This note sets out measurements from PubChem BioAssay AID1053149 (Broad Institute, 2014).

Structures are written as SMILES.

Experiment [1] is described as follows: PCSK9 secretion decrease in hepatoma cells – cell-based, HepG2, ELISA, plate reader, cherry-pick, orthogonal assay for Trib1 inducer project, dose response (AID 1053149). The settings on record: HepG2 secreted PCSK9, ELISA, 24 h; measured here: maximal PCSK9 decrease; stronger effect = higher value. (In general: In an ELISA, binding on a coated surface is turned into a signal by an enzyme label.)

Experiment [2] concerns HepG2 secreted PCSK9, ELISA, 24 h. The experiment is described as above.

Broadly, the AC50 is the concentration giving half of the maximal activity seen. With `CN1C(=O)c2cc(NC(=O)c3ccc(C(F)(F)F)cc3)ccc2OC[C@@H]2O[C@H](CC(=O)NC3Cc4ccccc4C3)CC[C@@H]21`, the decrease in PCSK9 in experiment [1] was found to be 79%. In addition, the AC50 in experiment [2] was 0.6 µM.

Take `CN1C(=O)c2cc(NC(=O)c3ccc(C(F)(F)F)cc3)ccc2OC[C@@H]2O[C@@H](CC(=O)NC3Cc4ccccc4C3)CC[C@@H]21`: the decrease in PCSK9 in experiment [1] was determined as 80%. Further, in experiment [2], the half-maximal activity concentration (AC50) is 6.6 µM.
